From US7851493B2, “Phenyl-1,2,4-oxadiazolone derivatives with phenyl group, processes for their preparation and their use as pharmaceuticals” (Sanofi-Aventis, priority 2005, dated 2010)

How the values were obtained:
[1] = molecular target: T1, human PPARdelta (Homo sapiens, UniProt Q03181); test: Cellular PPARdelta assay (human GAL4 luciferase reporter, stably transfected HEK cell line); type: cell-based
T1 construct: amino acids S139-Y441; expressed in transfected cells; plasmid pcDNA3
T1 sequence (Q03181 139-441): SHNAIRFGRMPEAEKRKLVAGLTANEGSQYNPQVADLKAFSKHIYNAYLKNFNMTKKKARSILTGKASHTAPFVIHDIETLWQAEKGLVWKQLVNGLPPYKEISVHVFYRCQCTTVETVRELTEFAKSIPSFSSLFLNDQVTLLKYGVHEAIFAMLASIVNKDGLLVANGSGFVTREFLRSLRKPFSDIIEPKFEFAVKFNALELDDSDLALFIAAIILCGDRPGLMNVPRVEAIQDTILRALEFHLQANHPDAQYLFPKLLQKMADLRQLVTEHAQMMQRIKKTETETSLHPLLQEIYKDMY
Description: Determination of EC50 Values of PPAR Agonists in the Cellular PPARdelta Assay
(§1) The potency of substances which bind to human PPARdelta and activate it in an agonistic manner is analyzed using a stably transfected HEK cell line (HEK=human embryo kidney) which is referred to here as PPARdelta reporter cell line. In analogy to the assay described for PPARalpha, the PPARdelta reporter cell line also contains two genetic elements, a luciferase reporter element (pdeltaM-GAL4-Luc-Zeo) and a PPARdelta fusion protein (GR-GAL4-humanPPARdelta-LBD) which mediates expression of the luciferase reporter element depending on a PPARdelta ligand. The stably and constitutively expressed fusion protein GR-GAL4-humanPPARdelta-LBD binds in the cell nucleus of the PPARdelta reporter cell line via the GAL4 protein portion to the GAL4 DNA binding motifs 5′-upstream of the luciferase reporter element which is stably integrated in the genome of the cell line. There is only little expression of the luciferase reporter gene in the absence of a PPARdelta ligand if fatty acid-depleted fetal calf serum (cs-FCS) is used in the assay. PPARdelta ligands bind and activate the PPARdelta fusion protein and thereby stimulate expression of the luciferase reporter gene. The luciferase which is formed can be detected by means of chemiluminescence via an appropriate substrate.
Construction of the PPARdelta Reporter Cell Line
The production of the stable PPARdelta reporter cell line is based on a stable HEK-cell clone which was stably transfected with a luciferase reporter element. This step was already described above in the section “construction of the PPARalpha reporter cell line”. In a second step, the PPARdelta fusion protein (GR-GAL4-humanPPARdelta-LBD was stably introduced into this cell clone. For this purpose, the cDNA coding for the N-terminal 76 amino acids of the glucocorticoid receptor (Accession #P04150) was linked to the cDNA section coding for amino acids 1-147 of the yeast transcription factor GAL4 (Accession #P04386). The cDNA of the ligand-binding domain of the human PPARdelta receptor (amino acids S139-Y441; Accession #L07592) was cloned in at the 3′-end of this GR-GAL4 construct. The fusion construct prepared in this way (GR-GAL4-humanPPARdelta-LBD) was recloned into the plasmid pcDNA3 (Invitrogen) in order to enable constitutive expression by the cytomegalovirus promoter. This plasmid was linearized with a restriction endonuclease and stably transfected into the previously described cell clone containing the luciferase reporter element. The resulting PPARdelta reporter cell line which contains a luciferase reporter element and constitutively expresses the PPARdelta fusion protein (GR-GAL4-human PPARdelta-LBD) was isolated by selection with zeocin (0.5 mg/ml) and G418 (0.5 mg/ml).
Assay Procedure and Evaluation
The activity of PPARdelta agonists is determined in a 3-day assay in exact analogy to the procedure already described for the PPARalpha reporter cell line except that the PPARdelta reporter cell line and a specific PPARdelta agonist was used as a standard to control test efficacy.

[2] = molecular target: T2, human PPARalpha (Homo sapiens, UniProt Q07869); test: Cellular PPARalpha assay (human GAL4 luciferase reporter, stably transfected HEK cell line); type: cell-based
T2 construct: amino acids S167-Y468; expressed in transfected cells; plasmid pcDNA3
T2 sequence (Q07869 167-468): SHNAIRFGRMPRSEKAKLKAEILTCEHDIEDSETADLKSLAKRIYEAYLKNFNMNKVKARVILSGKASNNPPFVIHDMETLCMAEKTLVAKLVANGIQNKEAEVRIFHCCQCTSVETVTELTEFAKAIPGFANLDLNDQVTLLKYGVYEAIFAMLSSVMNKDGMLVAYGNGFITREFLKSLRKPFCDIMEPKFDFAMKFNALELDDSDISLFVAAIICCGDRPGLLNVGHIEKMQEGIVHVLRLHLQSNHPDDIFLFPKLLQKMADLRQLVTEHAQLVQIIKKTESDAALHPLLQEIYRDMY
Description: Determination of EC50 Values of PPAR Agonists in the Cellular PPARalpha Assay
as §1, with “PPARalpha” for “PPARdelta”, “It” for “In analogy to the assay described for PPARalpha, the PPARdelta reporter cell line also”, “(GR-GAL4-humanPPARalpha-LBD)” for “(GR-GAL4-humanPPARdelta-LBD)”, “GR-GAL4-humanPPARalpha-LBD” for “GR-GAL4-humanPPARdelta-LBD”, “weak” for “little”, “stimulate the” for “stimulate”
Construction of the PPARalpha Reporter Cell Line
The PPARalpha reporter cell line was prepared in two stages. Firstly, the luciferase reporter element was constructed and stably transfected into HEK cells. For this purpose, five binding sites of the yeast transcription factor GAL4 (Accession #AF264724) were cloned in 5′-upstream of a 68 bp-long minimal MMTV promoter (Accession #V01175). The minimal MMTV promoter section contains a […] and a TATA element in order to enable efficient transcription by RNA polymerase II. The cloning and sequencing of the GAL4-MMTV construct took place in analogy to the description of Sambrook J. et al. (Molecular cloning, Cold Spring Harbor Laboratory Press, 1989). Then the complete Photinus pyralis gene (Accession #15077) was cloned in 3′-downstream of the GAL4-MMTV element. After sequencing, the luciferase reporter element consisting of five GAL4 binding sites, MMTV promoter and luciferase gene was recloned into a plasmid which confers zeocin resistance in order to obtain the plasmid pdeltaM-GAL4-Luc-Zeo. This vector was transfected into HEK cells in accordance with the statements in Ausubel, F. M. et al. (Current protocols in molecular biology, Vol. 1-3, John Wiley & Sons, Inc., 1995).
In a second step, the PPARalpha fusion protein (GR-GAL4-humanPPARalpha-LBD was introduced into the stable cell clone described. For this purpose, initially the cDNA coding for the N-terminal 76 amino acids of the glucocorticoid receptor (Accession #P04150) was linked to the cDNA section coding for amino acids 1-147 of the yeast transcription factor GAL4 (Accession #P04386). The cDNA of the ligand-binding domain of the human PPARalpha receptor (amino acids S167-Y468; Accession #S74349) was cloned in at the 3′-end of this GR-GAL4 construct. The fusion construct prepared in this way (GR-GAL4-humanPPARalpha-LBD) was recloned into the plasmid pcDNA3 (Invitrogen) in order to enable constitutive expression therein by the cytomegalovirus promoter. This plasmid was linearized with a restriction endonuclease and stably transfected into the previously described cell clone containing the luciferase reporter element. The finished PPARalpha reporter cell line which contains a luciferase reporter element and constitutively expresses the PPARalpha fusion protein (GR-GAL4-human PPARalpha-LBD) was isolated by selection with zeocin (0.5 mg/ml) and G418 (0.5 mg/ml).
The activity of PPARalpha agonists is determined in a 3-day assay, which is described below: […]

Structure (SMILES): COc1cc(OCc2sc(-c3ccc(C(F)(F)F)cc3)nc2CN2CCC(C(F)(F)F)C2)ccc1-c1noc(=O)[nH]1 (racemic) [Example 9, 3-{2-Methoxy-4-[2-(4-trifluoromethyl-phenyl)-4-(3-trifluoromethyl-pyrrolidin-1-ylmethyl)thiazol-5-ylmethoxy]-phenyl}-4H-[1,2,4]oxadiazol-5-one]
- EC50 [1]: 56 nM
- EC50 [2]: 729 nM

Structure (SMILES): COc1cc(OCc2sc(-c3ccc(C(F)(F)F)cc3)nc2CN2CCC(C(F)(F)F)CC2)ccc1-c1noc(=O)[nH]1 [Example 1, 3-{2-Methoxy-4-[2-(4-trifluoromethyl-phenyl)-4-(4-trifluoromethyl-piperidin-1-ylmethyl)-thiazol-5-ylmethoxy]-phenyl}-4H-[1,2,4]oxadiazol-5-one]
- EC50 [1]: 56 nM
- EC50 [2]: 830 nM

Structure (SMILES): COc1cc(OCc2sc(-c3ccc(C(F)(F)F)cc3)nc2CNC2CC2)ccc1-c1noc(=O)[nH]1 [Example 15, 3-{4-[4-Cyclopropylaminomethyl-2-(4-trifluoromethyl-phenyl)-thiazol-5-ylmethoxy]-2-methoxy-phenyl}-4H-[1,2,4]oxadiazol-5-one]
- EC50 [1]: 153 nM
- EC50 [2]: > 10000 nM

Structure (SMILES): CN(CCO)Cc1nc(-c2ccc(C(F)(F)F)cc2)sc1COc1ccc(-c2noc(=O)[nH]2)c(F)c1 [Example 19, 3-{2-Fluoro-4-[4-{[(2-hydroxy-ethyl)-methyl-amino]-methyl}-2-(4-trifluoromethyl-phenyl)-thiazol-5-ylmethoxy]-phenyl}-4H-[1,2,4]oxadiazol-5-one]
- EC50 [1]: 171 nM
- EC50 [2]: 1190 nM

Structure (SMILES): CC(=O)OCc1nc(-c2ccc(C(F)(F)F)cc2)sc1COc1ccc(-c2noc(=O)[nH]2)c(F)c1 [Example 33, Acetic acid 5-[3-fluoro-4-(5-oxo-4,5-dihydro-[1,2,4]oxadiazol-3-yl)-phenoxymethyl]-2-(4-trifluoromethyl-phenyl)-thiazol-4-ylmethyl ester]
- EC50 [1]: 299 nM
- EC50 [2]: 1410 nM

Structure (SMILES): Cc1cc(OCc2sc(-c3ccc(C(F)(F)F)cc3)nc2CNCCN2CCOCC2)ccc1-c1noc(=O)[nH]1 [Example 51, 3-{2-Methyl-4-[4-[(2-morpholin-4-yl-ethylamino)-methyl]-2-(4-trifluoromethyl-phenyl)-thiazol-5-ylmethoxy]-phenyl}-4H-[1,2,4]oxadiazol-5-one]
- EC50 [1]: 228 nM
- EC50 [2]: 1210 nM

Structure (SMILES): COCc1nc(/C=C/c2ccc(OC)cc2)oc1COc1ccc(-c2noc(=O)[nH]2)c(Cl)c1 [Example 55, 3-(2-Chloro-4-[4-methoxymethyl-2-[2-(4-methoxy-phenyl)-vinyl]-oxazol-5-ylmethoxy]-phenyl)-4H-[1,2,4]oxadiazol-5-one]
- EC50 [1]: 3 nM
- EC50 [2]: 319 nM

Structure (SMILES): Cc1nc(COCc2ccccc2)oc1COc1ccc(-c2noc(=O)[nH]2)c(Cl)c1 [Example 56, 3-[4-(2-Benzyloxymethyl-4-methyl-oxazol-5-ylmethoxy)-2-chloro-phenyl]-4H-[1,2,4]oxadiazol-5-one]
- EC50 [1]: 358 nM
- EC50 [2]: 2190 nM

Structure (SMILES): COc1ccc(-c2nc(COc3ccc(-c4noc(=O)[nH]4)c(C)c3)c(CN3CCOCC3)o2)cc1 [Example 68, 3-{4-[2-(4-Methoxy-phenyl)-5-morpholin-4-ylmethyl-oxazol-4-ylmethoxy]-2-methyl-phenyl}-4H-[1,2,4]oxadiazol-5-one]
- EC50 [1]: 661 nM
- EC50 [2]: 1200 nM

Structure (SMILES): COCCN(CCOC)Cc1nc(-c2ccc(C(F)(F)F)cc2)sc1COc1ccc(-c2noc(=O)[nH]2)c(Cl)c1 [Example 77, 3-{4-[4-{[Bis-(2-methoxy-ethyl)-amino]-methyl}-2-(4-trifluoromethyl-phenyl)-thiazol-5-ylmethoxy]-2-chloro-phenyl}-4H-[1,2,4]oxadiazol-5-one]
- EC50 [1]: 3 nM
- EC50 [2]: 530 nM

Structure (SMILES): O=c1[nH]c(-c2ccc(OCc3sc(-c4ccc(C(F)(F)F)cc4)nc3COCCC3CCCCC3)cc2Cl)no1 [Example 83, 3-{2-Chloro-4-[4-(2-cyclohexyl-ethoxymethyl)-2-(4-trifluoromethyl-phenyl)-thiazol-5-ylmethoxy]-phenyl}-4H-[1,2,4]oxadiazol-5-one]
- EC50 [1]: 12 nM
- EC50 [2]: 398 nM

Structure (SMILES): COc1cc(OCc2sc(-c3ccc(C(F)(F)F)cc3)nc2CSC)ccc1-c1noc(=O)[nH]1 [Example 89, 3-{2-Methoxy-4-[4-methylsulfanylmethyl-2-(4-trifluoromethyl-phenyl)-thiazol-5-ylmethoxy]-phenyl}-4H-1,2,4-oxadiazol-5-one]
- EC50 [1]: 153 nM
- EC50 [2]: 2620 nM

Structure (SMILES): O=c1[nH]c(-c2ccc(OCc3sc(-c4ccc(C(F)(F)F)cc4)nc3CN3CCC(C(F)(F)F)CC3)cc2OC(F)F)no1 [Example 94, 3-{2-Difluoromethoxy-4-[2-(4-trifluoromethyl-phenyl)-4-(4-trifluoromethyl-piperidin-1-ylmethyl)-thiazol-5-ylmethoxy]-phenyl}-4H-1,2,4-oxadiazol-5-one]
- EC50 [1]: 18 nM
- EC50 [2]: 664 nM
